Source: patent US11584766B2, “Nicotinamide phosphoribosyltransferase inhibitors and methods for use of the same” (THE TRUSTEES OF INDIANA UNIVERSITY, priority 2018, dated 2023)
Where a name gives a salt, the structure may show the parent alone.

What was measured:
NAMPT = biological target: T1, NAMPT (Homo sapiens, UniProt P43490); test: CycLex NAMPT Colorimetric Assay; type: biochemical; settings: for IC50: CycLex NAMPT Colorimetric Assay Kit, read-out: NAMPT Inhibition IC50
T1 construct: purchased MBL International Corporation (CycLex NAMPT Colorimetric Assay Kit Ver.2)
Experimental: The ability of the compounds of the disclosure to inhibit NAMPT was determined using the CycLex NAMPT Colorimetric Assay Kit Ver.2 by MBL International Corporation.
The assay detects NAMPT activity in recombinant NAMPT or endogenous NAMPT immunoprecipiated from cell lysates according to the scheme shown in FIG. 3. In this method, NAMPT converts nicotinamide to nicotinamide mononucleotide (“NMN”). Subsequently, nicotinamide mononucleotide adenylyltransferase 1 (“NMNAT1”) converts NMN to NAD^+. Resultant NAD^+ can be measured by enzyme cycling reaction using alcohol dehydrogenase (“ADH”), diaphorase and WST-1.

[1] = system: human pulmonary artery smooth muscle cells (hPASMCs); test: BrdU Assay (proliferation), hPASMC; type: cell-based; settings: Homo sapiens
Experimental: (§1) The effect of the compounds disclosed herein on the viability, proliferation, and apoptosis of human pulmonary artery endothelial cells (“hPAECs,”) and human pulmonary artery smooth muscle cells (“hPASMCs”) was determined using the PrestoBlue Assay (viability), CYQuant Direct or BrdU Assay (proliferation) or Tunel Assay (apoptosis), as described below.
(§2) HPAECs (1×10^4 cells/well) or HPASMCs (2.5×10^3 cells/well) were seeded in 96-well plates for 24 h in full-serum tissue culture medium. The full medium was removed prior to treatment with a NAMPT inhibitor prepared in medium containing 0.1% serum. NAMPT inhibitors were solubilized in 100% DMSO, unless otherwise indicated, prior to preparation of the dose response curve in 100% DMSO. The treatment dose response curve was diluted in 0.1% serum tissue culture medium and administered to cells for 24 h. DMSO diluted in the same medium was used as the vehicle control. Cell viability was measured according to the manufacturer's protocol by adding the PrestoBlue Cell Viability Reagent (ThermoFisher Scientific, #A13261) to cells for 20 min at 37° C. in a tissue culture incubator, followed by reading fluorescence at ex560/em590. Cell proliferation was measured, either in the same wells or in separate experiments, by adding the CyQuant Direct Confirmation Reagent (ThermoFisher Scientific, #C35011) for 1 h at 37° C. in a tissue culture incubator, followed by reading fluorescence at ex485/em538. Proliferation was also measured, in separate experiments, using the BrdU Cell Proliferation Assay (Calbiochem, #QIA58). After treatment with a NAMPT inhibitor for 24 h, BrdU was added to the cells in the presence of the inhibitor, for an additional 24 h and BrdU incorporation was detected according to the manufacturer's protocol. Apoptosis was analyzed by seeding cells (1×10^5 cells/well) in 6-well plates for 24 h in full-serum medium, followed by treatment with a NAMPT inhibitor for 24 h in full-serum medium. Tunel staining and detection was performed using the Tunel Assay Kit (Abcam, #ab66110) according to the manufacturer's protocol.

[2] = system: human pulmonary artery endothelial cells (hPAECs); test: BrdU Assay (proliferation), hPAEC; type: cell-based; settings: for effect on HPAEC proliferation (BrdU assay): dose response, FIG. 6
Experimental: as §1, §2

[3] = Solubility (2.5% v/v DMSO/water); type: physicochemical
[4] = system: human pulmonary artery endothelial cells (hPAECs); test: PrestoBlue Assay (viability), hPAEC; type: cell-based; settings: dose response, FIG. 4
Experimental: as §1, §2

[5] = system: human pulmonary artery endothelial cells (hPAECs); test: CyQUANT Direct Assay (proliferation), hPAEC; type: cell-based; settings: dose response, FIG. 5
Experimental: as §1, §2

T1 sequence (P43490 whole entry): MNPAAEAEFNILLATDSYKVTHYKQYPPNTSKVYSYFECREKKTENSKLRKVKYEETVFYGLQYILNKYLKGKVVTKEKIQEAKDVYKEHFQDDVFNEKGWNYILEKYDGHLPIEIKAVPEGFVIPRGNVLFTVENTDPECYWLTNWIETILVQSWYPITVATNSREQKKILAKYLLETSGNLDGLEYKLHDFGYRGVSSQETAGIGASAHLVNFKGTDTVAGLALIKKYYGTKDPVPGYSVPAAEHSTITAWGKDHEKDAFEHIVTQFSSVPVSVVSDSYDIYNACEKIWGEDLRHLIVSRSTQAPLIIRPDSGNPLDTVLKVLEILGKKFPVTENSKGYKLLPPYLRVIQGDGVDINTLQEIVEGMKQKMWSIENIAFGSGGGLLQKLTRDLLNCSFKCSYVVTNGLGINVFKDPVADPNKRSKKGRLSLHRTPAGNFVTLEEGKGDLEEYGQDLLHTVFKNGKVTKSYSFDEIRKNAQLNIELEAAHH

SMILES	IC50 (NAMPT)	further results
O=C(CCc1cccnc1)NCCCCCCn1c(-c2ccccc2)cc2ccccc21	~10000 nM	–
[2H][C@@H](C(=O)NCCCCCCn1c(-c2ccccc2)cc2ccccc21)[C@@H]([2H])c1cccnc1	92 nM	–
O=C(/C=C/c1cccnc1)NCCCCCCn1c(-c2ccccc2)cc2cc(O)c(O)cc21	124 nM	–
O=C(/C=C/c1cccnc1)NCCCCCCn1c(-c2ccccc2)cc2cc3c(cc21)OCO3	386 nM	–
Cc1cc2ccccc2n1CCCCCCNC(=O)CCc1cccnc1	970 nM	–
Cc1ccc2c(ccn2CCCCCCNC(=O)CCc2cccnc2)c1	1530 nM	–
[2H][C@@H](C(=O)NCCCCCC(=O)N1CCc2cc(O)ccc21)[C@@H]([2H])c1cccnc1	189 nM	–
COc1ccc2c(ccn2CCCCCCNC(=O)CCc2cccnc2)c1	674 nM	–
O=C(/C=C/c1cccnc1)NCCCCCCn1ccc2cccnc21	1540 nM	–
O=C(CCc1cccnc1)NCCCCCCn1ccc2cccnc21	2400 nM	–
CC1Cc2ccccc2N1C(=O)CCCCCNC(=O)/C=C/c1cccnc1 (centres unmarked)	–	IC50 [1]: 51.9 µM; effect on HPAEC proliferation (BrdU assay) [2]: dose-dependently decrease cell proliferation
[2H][C@@H](C(=O)NCCCCCCn1ccc2cc(OCc3ccccc3)ccc21)[C@@H]([2H])c1cccnc1 (relative stereo) [DGMS-RAR-6 D2]	233 nM	–
Cc1cc2ccccc2n1CCCCCCNC(=O)/C=C/c1cccnc1 [5.2.3a]	82 nM	–
O=C(CCc1cccnc1)NCCCCCCn1ccc2ccncc21 [5.2.3b H2]	2140 nM	–
O=C(/C=C/c1cccnc1)NCCCCCCn1ccc2ccncc21 [5.2.3b]	230 nM	–
O=C(/C=C/c1cccnc1)NCCCCCCN1c2ccccc2CCc2cc(Br)ccc21 [5.2.3d]	71 nM	–
O=C(/C=C/c1cccnc1)NCCCCCCN1c2ccccc2CC1c1ccccc1 (centres unmarked) [5.2.3e]	26 nM	–
[2H][C@@H](C(=O)NCCCCCCn1ccc2cc(OC)ccc21)[C@@H]([2H])c1cccnc1 [5.2.3f D2]	665 nM	–
Cc1ccc2c(ccn2CCCCCCNC(=O)/C=C/c2cccnc2)c1 [5.2.3g]	170 nM	–
COC(=O)Cc1cn(CCCCCCNC(=O)/C=C/c2cccnc2)c2ccccc12 [5.2.3h]	100 nM	–
O=C(/C=C/c1cccnc1)NCCCCCCn1ccc2cnccc21 [5.2.3k]	110 nM	–
O=C(/C=C/c1cccnc1)NCCCCCCn1ccc2cc(I)ccc21 [5.2.3l]	155 nM	–
O=C(CCc1cccnc1)NCCCCCCn1ccc2cc(O)ccc21 [5.2.3t H2]	1200 nM	–
CC1Cc2ccccc2N1C(=O)CCCCCNC(=O)/C=C/c1cccnc1 (centres unmarked) [DGMS-RAR1]	49 nM	–
[2H][C@@H](C(=O)NCCCCCC(=O)N1c2ccccc2CC1C)[C@@H]([2H])c1cccnc1 (some centres unmarked) [DGMS-RAR-1 D2]	632 nM	–

SMILES	IC50 (NAMPT)	further results
CC1Cc2ccccc2N1CCCCCCNC(=O)/C=C/c1cccnc1 (centres unmarked) [DGMS-RAR-1•HCl]	47 nM	–
CC1Cc2ccccc2N1C(=O)CCCCCNC(=O)/C=C/c1cccnc1 (centres unmarked) [DGMS-RAR-1•HO3SMe]	34 nM	–
O=C(/C=C/c1cccnc1)NCCCCCCN1c2ccccc2CCc2ccccc21 [DGMS-RAR-2]	80 nM	IC50 [1]: 1.5 µM; IC50 ([2]; Homo sapiens, Endothelial cell): 1.31 µM; effect on HPAEC proliferation (BrdU assay) [2]: dose-dependently decrease cell proliferation
O=C(/C=C/c1cccnc1)NCCCCCC(=O)N1CCCCc2ccccc21 [DGMS-RAR-3]	72 nM	–
[2H][C@@H](C(=O)NCCCCCC(=O)N1C[Si](C)(C)c2ccccc21)[C@@H]([2H])c1cccnc1 [DGMS-RAR-4D2]	2310 nM	–
C[Si]1(C)CN(C(=O)CCCCCNC(=O)CCc2cccnc2)c2ccccc21 [DGMS-RAR-4H2]	1590 nM	–
C[Si]1(C)CN(C(=O)CCCCCNC(=O)/C=C/c2cccnc2)c2ccccc21 [DGMS-RAR-4]	141 nM	–
O=C(CCc1cccnc1)NCCCCCCN1c2ccccc2CCc2ccccc21 [DGMS-RAR-5.2.3c H2]	100 nM	–
[2H][C@@H](C(=O)NCCCCCC(=O)N1c2ccccc2[Si](CC)(CC)C1C)[C@@H]([2H])c1cccnc1 (some centres unmarked) [DGMS-RAR-5D2]	668 nM	–
CC[Si]1(CC)c2ccccc2N(C(=O)CCCCCNC(=O)CCc2cccnc2)C1C (centres unmarked) [DGMS-RAR-5H2]	368 nM	–
CC[Si]1(CC)c2ccccc2N(C(=O)CCCCCNC(=O)/C=C/c2cccnc2)C1C (centres unmarked) [DGMS-RAR-5•O3SMe]	14 nM	inhibition at 10 µM (NAMPT): 99%; Solubility (2.5% v/v DMSO/water) [3]: Good
CC[Si]1(CC)c2ccccc2N(C(=O)CCCCCNC(=O)/C=C/c2cccnc2)C1C (centres unmarked) [DGMS-RAR-5•OTs]	10.3 nM	–
O=C(CCc1cccnc1)NCCCCCCn1ccc2cc(OCc3ccccc3)ccc21 [DGMS-RAR-6 H2]	582 nM	–
O=C(/C=C/c1cccnc1)NCCCCCCn1ccc2cc(OCc3ccccc3)ccc21 [DGMS-RAR-6]	1010 nM	–
O=C(/C=C/c1cccnc1)NCCCCCCn1ccc2cc(OCc3ccccc3)ccc21 [DGMS-RAR-6•HCl]	~100 nM	inhibition at 10 µM (NAMPT): 97%
O=C(/C=C/c1cccnc1)NCCCCCCn1ccc2cc(OCc3ccccc3)ccc21 [DGMS-RAR-6•HO3SMe]	~100 nM	% NAMPT Inhibition at 10 μM (NAMPT): 97%
O=C(O)Cc1cn(CCCCCCNC(=O)/C=C/c2cccnc2)c2ccccc12 [DGMS-RAR-PEG2A]	40 nM	inhibition at 10 µM (NAMPT): 98%
CCOC(=O)Cc1cn(CCCCCCNC(=O)/C=C/c2cccnc2)c2ccccc12 [DGMS-RAR-PEG2E]	< 10 nM	inhibition at 10 µM (NAMPT): 99%
COCCOCCOCCOCCOC(=O)Cc1cn(CCCCCCNC(=O)/C=C/c2cccnc2)c2ccccc12 [DGMS-RAR-PEG2]	21 nM	effect on HPAEC viability [4]: dose-dependently decrease cell viability; inhibition at 10 µM (NAMPT): 97%; Solubility (2.5% v/v DMSO/water) [3]: Moderate
O=C(O)CC1CN(C(=O)CCCCCNC(=O)/C=C/c2cccnc2)c2ccccc21 (centres unmarked) [DGMS-RAR-PEG3A]	1050 nM	–
CCOC(=O)CC1CN(C(=O)CCCCCNC(=O)/C=C/c2cccnc2)c2ccccc21 (centres unmarked) [DGMS-RAR-PEG3E]	44 nM	–
COCCOCCOCCOCCOC(=O)CC1CN(C(=O)CCCCCNC(=O)/C=C/c2cccnc2)c2ccccc21 (centres unmarked) [DGMS-RAR-PEG3]	21 nM	effect on HPAEC proliferation (CYQuant Direct assay) [5]: dose-dependently decrease cell proliferation; effect on HPAEC viability [4]: dose-dependently decrease cell viability; Solubility (2.5% v/v DMSO/water) [3]: Good
COCCOCCOCCOCCOC(=O)CCC(=O)Oc1ccc2c(ccn2CCCCCCNC(=O)/C=C/c2cccnc2)c1 [DGMS-RAR-mPEG3]	20 nM	inhibition at 10 µM (NAMPT): 97%; Solubility (2.5% v/v DMSO/water) [3]: good
Cl.O=C(/C=C/c1cccnc1)NCCCCCCn1c(-c2ccccc2)cc2ccccc21 [DGMS-RARI•HCl]	32 nM	% NAMPT Inhibition at 10 μM (NAMPT): 98%; Solubility (2.5% v/v DMSO/water) [3]: Moderate
O=C(/C=C/c1cccnc1)NCCCCCCn1c(-c2ccccc2)cc2ccccc21 [DGMS-RARI•HO3SMe]	12 nM	% NAMPT Inhibition at 10 μM (NAMPT): 98%
